Source: publication PMC6237192 (European journal of medicinal chemistry, 2018)
pIC50: −log10 of the molar value.

Key:
MT4 cells = assay: Cytotoxicity; type: cell-based, human; settings: ratio of CC50 to IC50
HIV-1NL4-3 (subtype B) = assay: Antiviral activity in MT-4 human T-lymphoid cells exposed to HIV-1NL4-3; type: cell-based; settings: Human immunodeficiency virus 1, MT4, in Homo sapiens

Q: How did the “Selectivity Index” value (MT4 cells) turn out when COc1ccc(S(=O)(=O)N(CC(C)C)C[C@@H](O)[C@H](Cc2ccccc2)NC(=O)c2ccc3c(c2)[C@@H](NC(=O)OC(C)(C)C)CCS3(=O)=O)cc1 [Inhibitor 4e, tert-Butyl ((S)-6-(((2S,3R)-3-hydroxy-4-((N-isobutyl-4-methoxyphenyl)sulfonamido)-1-phenylbutan-2-yl)carbamoyl)-1,1-dioxidothiochroman-4-yl)carbamate] was run?
A: >2128

Q: How did the pIC50 (HIV-1NL4-3 (subtype B)) turn out when CC(C)CN(C[C@@H](O)[C@H](Cc1ccccc1)NC(=O)O[C@H]1CCOC1)S(=O)(=O)c1ccc(N)cc1 [amprenavir] was run?
A: 7.52
